Data set [1] has as its target T1, ATP-dependent translocase ABCB1 (Homo sapiens, UniProt P08183). The data set is described as follows: TP_TRANSPORTER: ATP hydrolysis in membranes from MCF/ADR cells. It is filed as functional, cell membranes, Membrane.
Data set [2] addresses T1, ATP-dependent translocase ABCB1. The data set is described as follows: TP_TRANSPORTER: increase in Vinblastine intracellular accumulation (Vinblastine: 0.01-0.02 uM, Dihydrocytochalasin B: 10 uM) in MCF-7/ADR cells. The following applies: nci/adr-res. The class given is functional, cell-based.
Data set [3] shares this target. The data set can be described thus: TP_TRANSPORTER: increase in Vinblastine intracellular accumulation (Vinblastine: 0.01-0.02 uM, Cytochalasine E: 10 uM) in MCF-7/ADR cells. The class given is functional, cell-based. Particulars: nci/adr-res.

T1 sequence (P08183 whole entry): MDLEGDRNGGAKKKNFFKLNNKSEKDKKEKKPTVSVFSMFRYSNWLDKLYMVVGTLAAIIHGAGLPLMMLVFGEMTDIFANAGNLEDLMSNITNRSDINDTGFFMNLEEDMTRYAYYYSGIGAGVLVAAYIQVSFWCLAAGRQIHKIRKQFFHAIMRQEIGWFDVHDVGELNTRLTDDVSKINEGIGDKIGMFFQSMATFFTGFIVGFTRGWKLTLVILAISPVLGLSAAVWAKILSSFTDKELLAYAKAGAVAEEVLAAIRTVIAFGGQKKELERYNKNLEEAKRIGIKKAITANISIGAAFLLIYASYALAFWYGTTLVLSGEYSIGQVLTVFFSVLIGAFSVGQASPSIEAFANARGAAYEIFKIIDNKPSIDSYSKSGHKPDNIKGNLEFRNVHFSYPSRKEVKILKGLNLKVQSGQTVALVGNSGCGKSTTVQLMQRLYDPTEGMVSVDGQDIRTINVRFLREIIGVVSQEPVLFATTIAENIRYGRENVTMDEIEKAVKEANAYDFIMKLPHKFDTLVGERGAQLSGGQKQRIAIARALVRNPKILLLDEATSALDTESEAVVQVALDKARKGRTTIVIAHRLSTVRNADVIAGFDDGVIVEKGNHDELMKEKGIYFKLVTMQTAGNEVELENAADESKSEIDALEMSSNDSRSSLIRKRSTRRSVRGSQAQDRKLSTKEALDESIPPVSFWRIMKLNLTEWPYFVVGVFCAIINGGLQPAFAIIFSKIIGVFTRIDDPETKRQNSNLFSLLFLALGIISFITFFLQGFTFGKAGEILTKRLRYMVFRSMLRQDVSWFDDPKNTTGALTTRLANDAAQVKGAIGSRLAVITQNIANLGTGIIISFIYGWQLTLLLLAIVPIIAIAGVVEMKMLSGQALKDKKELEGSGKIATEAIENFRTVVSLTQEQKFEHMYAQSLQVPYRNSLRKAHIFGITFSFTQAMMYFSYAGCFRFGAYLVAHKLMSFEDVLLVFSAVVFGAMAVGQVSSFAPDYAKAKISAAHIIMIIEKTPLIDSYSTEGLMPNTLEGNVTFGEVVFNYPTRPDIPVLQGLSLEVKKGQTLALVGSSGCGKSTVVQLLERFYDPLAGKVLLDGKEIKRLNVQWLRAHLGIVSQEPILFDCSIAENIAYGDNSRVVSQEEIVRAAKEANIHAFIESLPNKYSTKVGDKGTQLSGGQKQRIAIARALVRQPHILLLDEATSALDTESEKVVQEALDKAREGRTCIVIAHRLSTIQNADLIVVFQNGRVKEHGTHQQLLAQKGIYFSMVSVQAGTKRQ

With `C=C1[C@@H](C)[C@H]2[C@H](Cc3ccccc3)NC(=O)[C@]23OC(=O)CC[C@H](O)CCC[C@@H](C)C/C=C/[C@H]3[C@@H]1O` [DIHYDROCYTOCHALASIN B], the results for the Activity entry in data set [1] and in data set [2] were “substrate [+]” and 257%, respectively.
`C[C@H]1C/C=C/[C@H]2[C@@H]3O[C@]3(C)[C@@H](C)[C@H]3[C@H](Cc4ccccc4)NC(=O)[C@]32OC(=O)O/C=C/[C@@](C)(O)C1=O` [CYTOCHALASIN E]: the Activity in data set [3] was 190%.

(Values after ChEMBL document CHEMBL2074535, “Differential interactions of cytochalasins with P-glycoprotein” (Oncol Res, 1995).)
